Results published in patent publication US20230183193A1, “4-DIFLUOROMETHYL BENZOYL AMIDES WITH HERBICIDAL ACTION” (BAYER CROPSCIENCE AKTIENGESELLSCHAFT, priority 2017, published 2023).

Experiments:
Assay type in all cases: in vivo
[1] = tested on: Alopecurus myosuroides; assay: Post-emergence herbicidal action, ALOMY; conditions: 80 g/ha, Table C
Procedure: (§1) Seeds of monocotyledonous and dicotyledonous weed and crop plants are laid out in sandy loam soil in wood-fiber pots, covered with soil and cultivated in a greenhouse under good growth conditions. 2 to 3 weeks after sowing, the test plants are treated at the one-leaf stage. The compounds of the invention, formulated in the form of wettable powders (WP) or as emulsion concentrates (EC), are then sprayed onto the green parts of the plants in the form of an aqueous suspension or emulsion at a water application rate equating to […], with addition of 0.2% wetting agent. After the test plants have been left to stand in the greenhouse under optimal growth conditions for about 3 weeks, the action of the preparations is assessed visually in comparison to untreated controls (herbicidal action in percent (%): 100% activity=the plants have died, 0% activity=like control plants). […] At the same time, inventive compounds leave Gramineae crops such as barley, wheat, rye, millet/sorghum, corn or rice virtually undamaged when applied post-emergence, even at high active compound dosages. In addition, some substances are also harmless to dicotyledonous crops such as soya, cotton, oilseed rape, sugar beet or potatoes. Some of the compounds according to the invention have high selectivity and are therefore suitable for controlling unwanted vegetation in agricultural crops by the post-emergence method. The data of Tables C and D below illustrate, in an exemplary manner, the […] herbicidal action of the compounds according to the invention, the herbicidal activity being stated in percent.
(§2) For comparison, the herbicidal activity of numerous compounds according to the invention was tested with the structurally closest compounds known from the documents WO 2011/035874, WO 2012/028579 and WO 2012/126932, by the pre- and post-emergence method.

[2] = tested on: Setaria viridis; assay: Post-emergence herbicidal action, SETVI; conditions: 80 g/ha, Table C
Summary of the method: (§3)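 Herbicidal effect is rated visually as percent versus untreated plants (100% = dead, 0% = like control) about 3 weeks after spraying. Plants were sown in sandy loam in the greenhouse and sprayed on green parts at the one-leaf stage, 2 to 3 weeks post-sowing.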

[3] = tested on: Stellaria media; assay: Post-emergence herbicidal action, STEME; conditions: 80 g/ha, Table D
Summary of the method: as §3

[4] = tested on: Amaranthus retroflexus; assay: Post-emergence herbicidal action, AMARE; conditions: 80 g/ha, Table D
Summary of the method: as §3

[5] = tested on: Avena fatua; assay: Post-emergence herbicidal action, AVEFA; conditions: 80 g/ha, Table C
Procedure: as §1, §2

[6] = tested on: Stellaria media; assay: Pre-emergence herbicidal action, STEME; conditions: dosage 320 g/ha, scored visually after 3 weeks vs untreated controls
Summary of the method: (§4)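 Weed seeds were laid out in sandy loam and covered with soil, then the soil surface was treated with an aqueous suspension or emulsion of the formulated compound containing 0.2% wetting agent. Pots stayed in the greenhouse for 3 weeks before damage was rated visually against untreated plants.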

[7] = tested on: Avena fatua; assay: Pre-emergence herbicidal action, AVEFA; conditions: dosage 320 g/ha, scored visually after 3 weeks vs untreated controls
Summary of the method: as §4

[8] = tested on: Viola tricolor; assay: Pre-emergence herbicidal action, VIOTR; conditions: dosage 320 g/ha, scored visually after 3 weeks vs untreated controls
Summary of the method: as §4

[9] = tested on: Alopecurus myosuroides; assay: Pre-emergence herbicidal action, ALOMY; conditions: dosage 320 g/ha, scored visually after 3 weeks vs untreated controls
Summary of the method: as §4

[10] = tested on: ECHCG; assay: Post-emergence herbicidal action, ECHCG; conditions: 80 g/ha, Table C
Summary of the method: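 Weed and crop plants grown in sandy loam in the greenhouse, treated at the one-leaf stage 2–3 weeks after sowing. Damage scored visually after about 3 weeks vs untreated controls (0% = control, 100% = dead).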

[11] = tested on: Viola tricolor; assay: Post-emergence herbicidal action, VIOTR; conditions: 80 g/ha, Table D
Summary of the method: as §3

[12] = tested on: Pharbitis purpureum; assay: Post-emergence herbicidal action, PHBPU; conditions: 80 g/ha, Table D
Summary of the method: as §3

[13] = tested on: Abutilon theophrasti; assay: Post-emergence herbicidal action, ABUTH; conditions: 80 g/ha, Table D
Summary of the method: as §3

[14] = tested on: Cyperus serotinus; assay: Pre-emergence herbicidal action, CYPES; conditions: dosage 320 g/ha, scored visually after 3 weeks vs untreated controls
Summary of the method: as §4

[15] = tested on: Amaranthus retroflexus; assay: Pre-emergence herbicidal action, AMARE; conditions: dosage 320 g/ha, scored visually after 3 weeks vs untreated controls
Summary of the method: as §4

[16] = tested on: Setaria viridis; assay: Pre-emergence herbicidal action, SETVI; conditions: dosage 320 g/ha, scored visually after 3 weeks vs untreated controls
Summary of the method: as §4

[17] = tested on: Abutilon theophrasti; assay: Pre-emergence herbicidal action, ABUTH; conditions: dosage 320 g/ha, scored visually after 3 weeks vs untreated controls
Summary of the method: as §4

[18] = tested on: Matricaria inodora; assay: Pre-emergence herbicidal action, MATIN; conditions: dosage 320 g/ha, scored visually after 3 weeks vs untreated controls
Summary of the method: as §4

Row | Compound | herbicidal activity ALOMY [1] | herbicidal activity SETVI [2] | Herbicidal activity STEME [3] | herbicidal activity AMARE [4] | herbicidal activity AVEFA [5] | Herbicidal activity STEME [6] | herbicidal activity AVEFA [7] | herbicidal activity VIOTR [8] | herbicidal activity ALOMY [9] | Herbicidal activity ECHCG [10] | herbicidal activity VIOTR [11] | Herbicidal activity PHBPU [12] | herbicidal activity ABUTH [13] | herbicidal activity CYPES [14] | herbicidal activity AMARE [15] | herbicidal activity SETVI [16] | herbicidal activity ABUTH [17] | herbicidal activity MATIN [18]
1 | CCSc1c(C(F)F)ccc(C(=O)Nc2nnnn2C)c1C [Example 1-4] | 90% | 100% | 100% | 100% | 100% | 100% | 100% | 100% | 100% | 100% | 100% | 100% | 100% | 80% | 100% | 100% | 100% | 100%
2 | CC[S+]([O-])c1c(C(F)F)ccc(C(=O)Nc2nnnn2C)c1C (stereo not shown) [Example 1-5] | 100% | 100% | 100% | 100% | 100% | 90% | 100% | 100% | 100% | 100% | 100% | 100% | 90% | 100% | 100% | 100% | 100% | 100%
3 | CCS(=O)(=O)c1c(C(F)F)ccc(C(=O)Nc2nnnn2C)c1C [Example 1-6] | 100% | 100% | 100% | 100% | 100% | 100% | 100% | 100% | 100% | 100% | 100% | 100% | 90% | 100% | 100% | 100% | 100% | 100%
4 | CCc1c(C(=O)Nc2nnnn2C)ccc(C(F)F)c1SC [Example 1-13] | 90% | 90% | 100% | 100% | 100% | 100% | 100% | 100% | 100% | 90% | 100% | 100% | 100% | 100% | 100% | 100% | 100% | 100%
5 | CCc1c(C(=O)Nc2nnnn2C)ccc(C(F)F)c1[S+](C)[O-] (stereo not shown) [Example 1-14] | 90% | 100% | 100% | 90% | 90% | 100% | 100% | 100% | 100% | 100% | 90% | 90% | 100% | 100% | 100% | 100% | 100% | 100%
6 | CCn1nnnc1NC(=O)c1ccc(C(F)F)c([S+](C)[O-])c1C (stereo not shown) [Example 2-2] | 90% | 100% | 100% | 80% | 90% | – | 100% | 100% | 100% | 90% | 100% | 90% | 90% | 90% | 100% | 100% | 100% | 100%
7 | CCCn1nnnc1NC(=O)c1ccc(C(F)F)c(SC)c1C [Example 3-1] | 90% | 100% | 100% | 100% | 100% | 100% | 100% | 100% | 100% | 100% | 100% | 90% | 100% | – | 100% | 100% | 100% | 100%
8 | CCCn1nnnc1NC(=O)c1ccc(C(F)F)c(S(C)(=O)=O)c1C [Example 3-3] | 90% | 90% | 90% | 80% | 90% | – | 100% | 100% | 90% | 90% | 100% | 90% | 90% | 90% | 100% | 100% | 100% | 100%
9 | CCSc1c(C(F)F)ccc(C(=O)Nc2ncnn2C)c1Br [Example 4-64] | 100% | 100% | 100% | 100% | 100% | 100% | 100% | 100% | 90% | 100% | 100% | 100% | 100% | – | 100% | 100% | 100% | 100%
10 | CCS(=O)(=O)c1c(C(F)F)ccc(C(=O)Nc2nnc(C)o2)c1Br [Example 7-64] | 90% | 100% | 90% | 100% | 100% | 100% | 100% | 100% | 100% | 100% | 90% | 100% | 100% | 100% | – | 100% | 100% | 100%
